Measurements: US5922554A, “Inhibition of cellular uptake of cholesterol” (The Regents of the University of California, priority 1996, dated 1999)

Columns and labels:
[1] = test system: fibroblast monolayers; test: Influx/uptake of ^3 H-FC (free cholesterol) from labeled LDL (or plasma, HDL) into normal fibroblast monolayers; format: cell-based, human; parameters: Emax: dose or concentration left out as unconfirmed; settings: for effect on uptake of ^3 H-FC from LDL: up to 60 μM; for FC Influx: LDL-FC 60.2 μg ml^-1, 60 min, 37° C., 30 min preequilibration with inhibitor at: Na-azide 1 mM, NH4-vanadate 1 mM, NEM 2 mM, KNO3 50 mM, progesterone 30 μM, forskolin 30 μM, IBMX 100 μM, chloroquine 20 μM; for FC Influx, % (PBS only = 100.0): same concentrations and conditions as Table 3 FC influx, 60 min; for inhibition at higher concentration (words): up to 100 μM; for effect on LDL FC uptake: Table 3 conditions
[2] = test system: fibroblast monolayers; test: Transfer of intracellular ^3 H-FC to the cell surface (cholesterol oxidase accessibility); format: cell-based, human; settings: for % transfer of intracellular ^3 H-FC to the cell surface, relative to rate in absence of inhibitor: NEM 2 mM, KNO3 50 mM, nocodazole, brefeldin A, vinblastine 40 μM, pulse labeled 2 min 31° C., then 30 min 31° C.
Method: This assay utilized the finding (see Example 1) that only FC in the caveolar fraction of the plasma membrane fraction was modified by cholesterol oxidase in unfixed fibroblast monolayers.
The rate at which intracellular LDL-derived ^3 H-FC became accessible at the cell surface was measured as follows. Cell monolayers were labeled with ^3 H-FC LDL under the conditions shown for each experiment. Unbound and adsorbed LDL were removed as described above. In some experiments metabolic inhibitors of different transport steps were then added for 30 min at 15° C. […] Cholesterol oxidase (Boehringer-Manheim, Indianapolis, Ind., USA) was added in PBS to a final concentration of 1 U ml^-1. Incubation was for 4 h at 0° C. The cells were washed with ice-cold PBS, and extracted with 0. 1N NAOH. Cell total lipid was extracted with chloroform-methanol (1:1 v/v). […] .
Fibroblast monolayers were prelabeled with FC-labeled LDL for 2 min at 31° C. Medium and surface-bound labeled LDL were removed as described above. The cells were incubated with inhibitors of intracellular transport for 30 min at 15° C. Movement of FC label to the cell surface remained negligible (FIG. 11).
^a Relative to rate in the absence of inhibitor. Values are expressed

[3] = test system: fibroblast monolayers; test: D2O-Ficoll density gradient fractionation of ^3 H-FC labeled fibroblasts; format: cell-based, human; settings: clathrin fraction d 1.12 g ml^-1; NEM 2 mM
Method: Early endosomal vesicles were labeled with LDL-derived ^3 H-FC by a modification of procedures described by Woodman & Warren (1991) J. Cell Biol., 112:1133-1141. Fibroblast monolayers in 10 cm dishes were washed in ice-cold PBS. The cells were labeled by incubation (2 h, 4° C.) with ^3 H-FC LDL. The monolayers were washed in PBS and brought to 31° C. for 0-15 min. The cells were then quickly chilled on ice, and cold unlabeled LDL was added (15 min, 4° C.) to displace any remaining surface-bound labeled LDL and all subsequent steps were carried out at 0-4° C.
Cells from three 10 cm dishes were used for each gradient. Monolayers were washed with 140 mM sucrose, 0.5 mM MgCl2, 1 mM EGTA, 20 mM 2-[N-morpholino]ethanesulfonic acid (MES), 70 mM potassium acetate, pH 6.6 (`vesicle buffer`) (Woodman & Warren, supra.). The cells were scraped from the dishes. Dithiothreitol (1 mm) and protease inhibitors (PMSF, 200 μg ml^-1; benzamidine 0.5 mM; soybean trypsin inhibitor 10 μg ml^-1; leupeptin 1 μg ml^-1) were added. The cells were broken with a Dounce homogenizer (15 strokes) and the homogenate centrifuged at 500× g for 5 min. Ribonuclease A (50 μg ml^-1) was added. After 30 min a second centrifugation was carried out (7000× g, 30 min). Supernatant (~2 ml) was layered on a 10 ml continuous gradient of 2% Ficoll-9% D2 O to 20% Ficoll-90% D2 O in vesicle buffer containing 1 mM dithiothreitol. Centrifugation in a Beckman SW41 rotor was carried out at 80,000× g for 16 h. Fractions (~0.6 ml) were collected dropwise and the distribution of FC label determined. Because of slight variation in fraction size between gradients, data were normalized to 20 fractions for comparison between experiments. Solution density was determined gravimetrically using 100 μl portions of each fraction. The density of a given fraction was reproducible ±0.5% between experiments.
Fibroblast monolayers were incubated with ^3 H-FC LDL for 30 min at 31° C. to predominantly label the intermediate density vesicle fraction. Cell surface LDL was removed as described above. […]

[4] = test system: fibroblasts; settings: Hokland et al. 1993; cited from earlier work
[5] = test system: fibroblast monolayers; test: Cholesterol efflux from ^3 H-cholesterol labeled fibroblasts to plasma; format: cell-based, human
Method: Fibroblast monolayers were equilibrated with ^3 H-FC-labeled native plasma or with isolated ^3 H-labeled LDL, as specified for each experiment. Following incubation, the dishes were washed with albumin-complete PBS and then (×4) with complete PBS. They were then incubated for 3 min with unlabeled plasma or lipoprotein fractions and the rate of appearance of radioactivity in the medium determined. Samples of medium (100 μl) were immediately chilled in ice water and centrifuged (10 min, 2000× g) at 0-2° C. ^3 H-cholesterol radioactivity in the supernatant was either assayed directly, or fractionated by agarose gel electrophoresis. FC efflux was linear as previously reported (Kawano et al., Biochemistry, 32: 5025-5028 (1993)).
For electrophoresis, 20 μl portions of labeled medium were added to strips of 0.75% w/v agarose in 0.025M barbital buffer (pH 8.6) and separated as previously described (Fielding et al., Biochemistry, 30: 8551-8557 (1991)). 2.5 mm gel fractions were then collected, and radioactivity measured. The location of major lipoprotein classes was determined from strips run simultaneously with whole native plasma equilibrated (60 min, 37° C.) with ^3 H-FC.
^c Percent loss of label from cells prelabeled (10 min, 37° C.

[6] = test system: LDL-receptor deficient cells (GM 2000 line); test: Influx of ^3 H-FC from LDL into LDL-receptor-deficient fibroblasts (GM 2000)
[7] = Homo sapiens, Fibroblast, read-out: Influx of 3H-FC, % Remaining

| Compound | inhibition of LDL-FC pathway (summary, words) [1] | transport of intracellular ^3 H-FC to the cell surface/caveolae [2] | FC Influx [1] [µg] | FC Influx, % (PBS only = 100.0) [1] [%] | effect on LDL FC uptake [1] | also measured |
| --- | --- | --- | --- | --- | --- | --- |
| CO/C1=C\C(C)=C\[C@@H](C)[C@@H](O)[C@@H](C)C/C(C)=C/C=C/[C@H](OC)[C@@H]([C@@H](C)[C@@H](O)[C@H](C)[C@@]2(O)C[C@@H](O)[C@H](C)[C@@H](C(C)C)O2)OC1=O [Bafilomycin A1] | inhibited |  |  |  |  | activity at 45 µM [1, 7]: 70 ± 4%; Emax ([1]; Homo sapiens, Fibroblast, read-out: maximal effect on uptake of FC from LDL): 30% |
| C[C@H]1CCC/C=C/[C@@H]2C[C@H](O)C[C@H]2[C@H](O)/C=C/C(=O)O1 [Brefeldin A] | not inhibited | unaffected |  |  |  | % transfer of intracellular ^3 H-FC to the cell surface, relative to rate in absence of inhibitor [2]: 95 ± 5%; effect on uptake of ^3 H-FC from LDL [1]: without effect |
| CCN(CC)CCCC(C)Nc1ccnc2cc(Cl)ccc12 (stereo not shown) [Chloroquine] |  |  | 1.34 ± 0.04 | 102.3 |  | LDL-FC influx (discussion, words) [1]: no effect |
| C=C1C(C)C2C(Cc3ccccc3)NC(=O)C23C(OC(C)=O)/C=C/C(C)(O)C(=O)C(C)CC=CC3C1O (stereo not shown) [Cytochalasin D] | inhibited | no effect |  |  |  | activity at 40 µM [1, 7]: 38 ± 2%; inhibition at 40 µM ([1]; Homo sapiens, Fibroblast, read-out: reduction of uptake of ^3 H-FC from LDL (average)): 65%; inhibition at higher concentration (words) ([1]; listed as Cytochalasin): No greater inhibition; inhibition at higher concentration (words) ([1]; listed as cytochalasin D): no increase in inhibition; FC label in density gradient [3]: A similar result |
| C=C[C@@]1(C)CC(=O)[C@]2(O)[C@@]3(C)[C@@H](O)CCC(C)(C)[C@@H]3[C@H](O)[C@H](OC(C)=O)[C@@]2(C)O1 [Forskolin] | not inhibited |  | 1.39 ± 0.01 | 105.3 | no effect | transfer of newly-synthesized cholesterol to plasma membrane [4]: stimulated; LDL-FC influx (discussion, words) [1]: unaffected |
| CC(C)Cn1c(=O)n(C)c(=O)c2[nH]cnc21 [IBMX, isobutyl methylxanthine] | not inhibited |  | 1.46 ± 0.04 | 110.8 | no effect | transfer of newly-synthesized cholesterol to plasma membrane [4]: stimulated; LDL-FC influx (discussion, words) [1]: unaffected |
| O=[N+]([O-])[O-].[K+] [KNO3] | inhibited | inhibited the return of FC to the cell surface, but less effectively than did nocodazole | 0.28 ± 0.02 | 21.0 |  | % transfer of intracellular ^3 H-FC to the cell surface, relative to rate in absence of inhibitor [2]: 70 ± 4%; initial rate of efflux of FC from prelabeled cells to plasma [5]: increased several-fold; time course of inhibition of ^3 H-FC transfer compared with NEM (FIG. 8) ([1]; 50 mM KNO3, data not shown): comparable time course; inhibition of uptake of free cholesterol from LDLs (summary) ([1]; NEM or KNO3, Example 1, FIG. 8): > 80% |
| CC[C@@]1([C@@H]2O[C@@H]([C@H]3O[C@@](O)(CO)[C@H](C)C[C@@H]3C)C[C@@H]2C)CC[C@H]([C@]2(C)CC[C@]3(C[C@H](O)[C@@H](C)[C@@H]([C@@H](C)[C@@H](OC)[C@H](C)C(=O)O)O3)O2)O1 [Monensin] | inhibited |  |  |  | effective in reducing the selective uptake of FC from LDL | inhibition at higher concentration (words) [1]: no increase in inhibition; selective uptake of FC from LDL, LDL-receptor deficient cells ([6]; GM2000): Comparable results; FC label in density gradient [3]: A similar result |
| [NH4+].[O]=[V](=[O])[O-] [NH4 -vanadate] | not inhibited |  | 1.36 ± 0.08 | 103.2 | without effect |  |
| [N-]=[N+]=[N-].[Na+] [Na-azide] | not inhibited |  | 1.18 ± 0.02 | 89.5 | without effect |  |
| COC(=O)Nc1nc2ccc(C(=O)c3cccs3)cc2[nH]1 [Nocodazole] | not inhibited | reduced |  |  |  | transport of the vesicles to the plasma membrane (summary, words) [2]: inhibited; % transfer of intracellular ^3 H-FC to the cell surface, relative to rate in absence of inhibitor [2]: 40 ± 1%; activity at 60 µM ([1]; Homo sapiens, Fibroblast, cytochalasin D 40 μM, monensin 40 μM, nocodazole 60 μM, bafilomycin A1 45 μM, means ±1 SD of three experiments, read-out: Influx of 3H-FC, % Remaining): 101 ± 6%; effect on uptake of ^3 H-FC from LDL [1]: without effect |
| CC[C@]1(O)C[C@@H]2CN(CCc3c([nH]c4ccccc34)[C@@](C(=O)OC)(c3cc4c(cc3OC)N(C)[C@H]3[C@@](O)(C(=O)OC)[C@H](OC(C)=O)[C@]5(CC)C=CCN6CC[C@]43[C@@H]65)C2)C1 [Vinblastine] | not inhibited | unaffected |  |  |  | inhibition at 40 µM ([2]; Homo sapiens, Fibroblast, read-out: % transfer of intracellular ^3 H-FC to the cell surface, relative to rate in absence of inhibitor): 100 ± 2%; effect on uptake of ^3 H-FC from LDL [1]: without effect |
| [3H]C1C([3H])[C@@]2(C)C(=CC[C@H]3[C@@H]4CC[C@H]([C@H](C)CCCC(C)C)[C@@]4(C)CC[C@@H]32)C[C@H]1O (stereo partly shown) [^3 H-FC, 1,2-^3 H-cholesterol] |  |  |  |  |  | cholest-4-en-3-one fraction of total label ([2]; 0-4° C., 4 experiments): 0.8±0.2%; t1/2 of increase in oxidized FC (transfer to cell surface) ([2]; 31° C., FIG. 11): ~ 2 min; internalized FC localized to oxidase-sensitive fraction ([2]; after 2 min pulse label, 31° C.): about 40% |
| CC(=O)O[C@H]1C(=O)[C@@]2(C)[C@H]([C@H](OC(=O)c3ccccc3)[C@]3(O)C[C@H](OC(=O)[C@H](O)[C@@H](NC(=O)c4ccccc4)c4ccccc4)C(C)=C1C3(C)C)[C@]1(OC(C)=O)CO[C@@H]1C[C@@H]2O [taxol] | not inhibited |  |  |  |  | effect on uptake of ^3 H-FC from LDL [1]: without effect |
| sodium heparin |  |  |  |  |  | inhibition of influx of FC from LDL ([1]; heparin 0.1 mg/ml, normal cells, LDL 150 μg FC ml^-1, 10 min 37° C.): Approximately 80%; inhibition of influx of FC from LDL ([6]; heparin 0.1 mg/ml, GM 2000 cells): Approximately 80% |
